Reference: ChEMBL document CHEMBL5724914, “Linking interpersonal differences in gut microbiota composition and drug biotransformation activity” (2024)

Legend:
[1] = human gut metagenome, 24 h, 2 µM
[2] = human gut metagenome, 24 h, 2 µM; remark: listed apart in the source
[3] = human gut metagenome, 24 h, 2 µM; remark: listed apart in the source
[4] = (§1) The drug is tested on Z-016 corresponding to mouse gut metagenome with ENA study accession number: PRJEB37062 and ENA sample accession number: ERS12561815 for biotransformation under anaerobic condition. The drug concentrations were measured over 9 timepoints collected between 0 and 24 hours of incubation by liquid-chromatography-coupled mass spectrometry (LC–MS); conditions: 2 µM
[5] = human gut metagenome, 24 h, 2 µM; remark: listed apart in the source
[6] = as §1, with “Z-019” for “Z-016”, “rat” for “mouse”, “ERS12561818” for “ERS12561815”; conditions: 2 µM
[7] = as §1, with “Z-024” for “Z-016”, “pig” for “mouse”, “ERS12561823” for “ERS12561815”; conditions: 2 µM
[8] = as §1, with “WLS-170” for “Z-016”, “human” for “mouse”, “ERS12561762” for “ERS12561815”; conditions: 2 µM
[9] = human gut metagenome, 24 h, 2 µM; remark: listed apart in the source
[10] = as §1, with “WLS-073” for “Z-016”, “human” for “mouse”, “ERS12561749” for “ERS12561815”; conditions: 2 µM
[11] = human gut metagenome, 24 h, 2 µM; remark: listed apart in the source
[12] = as §1, with “Z-017” for “Z-016”, “ERS12561816” for “ERS12561815”; conditions: 2 µM
[13] = human gut metagenome, 24 h, 2 µM; remark: listed apart in the source
[14] = human gut metagenome, 24 h, 2 µM; remark: listed apart in the source
[15] = human gut metagenome, 24 h, 2 µM; remark: listed apart in the source
[16] = as §1, with “WLS-052” for “Z-016”, “human” for “mouse”, “ERS12561747” for “ERS12561815”; conditions: 2 µM
[17] = human gut metagenome, 24 h, 2 µM; remark: listed apart in the source
[18] = human gut metagenome, 24 h, 2 µM; remark: listed apart in the source
[19] = as §1, with “WLS-069” for “Z-016”, “human” for “mouse”, “ERS12561748” for “ERS12561815”; conditions: 2 µM
[20] = as §1, with “Z-007” for “Z-016”, “rat” for “mouse”, “ERS12561807” for “ERS12561815”; conditions: 2 µM
Note: call rule not given here.

| Structure (SMILES) | Bacterial Biotransformation [1] | Bacterial Biotransformation [2] | Bacterial Biotransformation [3] | Bacterial Biotransformation [4] | Bacterial Biotransformation [5] | Bacterial Biotransformation [6] | Bacterial Biotransformation [7] | Bacterial Biotransformation [8] | Bacterial Biotransformation [9] | Bacterial Biotransformation [10] | Bacterial Biotransformation [11] | Bacterial Biotransformation [12] | Bacterial Biotransformation [13] | Bacterial Biotransformation [14] | Bacterial Biotransformation [15] | Bacterial Biotransformation [16] | Bacterial Biotransformation [17] | Bacterial Biotransformation [18] | Bacterial Biotransformation [19] | Bacterial Biotransformation [20] |
| --- | --- | --- | --- | --- | --- | --- | --- | --- | --- | --- | --- | --- | --- | --- | --- | --- | --- | --- | --- | --- |
| COc1ccc2c(c1)c(CC(=O)O)c(C)n2C(=O)c1ccc(Cl)cc1 [INDOMETHACIN] | Compound NOT metabolized | Compound metabolized | Compound metabolized | Compound NOT metabolized | Compound metabolized | Compound NOT metabolized | Compound NOT metabolized | Compound metabolized | Compound metabolized | Compound metabolized | Compound NOT metabolized | Compound NOT metabolized | Compound metabolized | Compound metabolized | Compound metabolized | Compound metabolized | Compound metabolized | Compound NOT metabolized | Compound metabolized | Compound NOT metabolized |
| CC(CCc1ccccc1)NCC(O)c1ccc(O)c(C(N)=O)c1 (stereo not given) [LABETALOL] | Compound NOT metabolized | Compound NOT metabolized | Compound NOT metabolized | Compound NOT metabolized | Compound NOT metabolized | Compound NOT metabolized | Compound metabolized | Compound NOT metabolized | Compound NOT metabolized | Compound NOT metabolized | Compound NOT metabolized | Compound NOT metabolized | Compound NOT metabolized | Compound NOT metabolized | Compound metabolized | Compound NOT metabolized | Compound NOT metabolized | Compound NOT metabolized | Compound NOT metabolized | Compound NOT metabolized |
| Nc1nnc(-c2cccc(Cl)c2Cl)c(N)n1 [LAMOTRIGINE] | Compound NOT metabolized | Compound NOT metabolized | Compound NOT metabolized | Compound NOT metabolized | Compound NOT metabolized | Compound NOT metabolized | Compound NOT metabolized | Compound metabolized | Compound NOT metabolized | Compound NOT metabolized | Compound NOT metabolized | Compound NOT metabolized | Compound NOT metabolized | Compound NOT metabolized | Compound NOT metabolized | Compound NOT metabolized | Compound NOT metabolized | Compound NOT metabolized | Compound NOT metabolized | Compound NOT metabolized |
| OC(c1cc(C(F)(F)F)nc2c(C(F)(F)F)cccc12)C1CCCCN1 (stereo not given) [MEFLOQUINE] | Compound NOT metabolized | Compound NOT metabolized | Compound metabolized | Compound NOT metabolized | Compound metabolized | Compound NOT metabolized | Compound metabolized | Compound metabolized | Compound metabolized | Compound metabolized | Compound metabolized | Compound NOT metabolized | Compound NOT metabolized | Compound metabolized | Compound metabolized | Compound metabolized | Compound NOT metabolized | Compound metabolized | Compound metabolized | Compound NOT metabolized |
